Ten compounds from patent US11945826B2, “Hydroxypyridoxazepines as NRF2 activators” (GLAXOSMITHKLINE INTELLECTUAL PROPERTY DEVELOPMENT LIMITED, priority 2019, dated 2024) can be followed below.

Broadly, the EC50 is the midpoint of the concentration-response curve.

The test system of the assay is Nrf2 (NQO1 activity in BEAS-2B cells). Description: BEAS-2B NQO1 MTT Assay. In kind it is cell-based. As to conditions: Homo sapiens, 48 hours, NQO1 specific activity induction, read-out: EC50. The source says:
NAD(P)H:quinone oxidoreductase 1 (NQO1), also called DT diaphorase, is a homodimeric FAD-containing enzyme that catalyzes obligatory NAD(P)H-dependent two-electron reductions of quinones and protects cells against the toxic and neoplastic effects of free radicals and reactive oxygen species arising from one-electron reductions. The transcription of NQO1 is finely regulated by Nrf2, and thus NQO1 activity is a good marker for Nrf2 activation. On day one, frozen BEAS-2B cells (ATCC) were thawed in a water bath, counted, and re-suspended at a concentration of 250,000 cells/mL. Fifty microliters of cells were plated in 384 well black clear-bottomed plates. Plates were incubated at 37° C., 5% CO2 overnight. On day two, plates were centrifuged and 50 nL of compound or controls were added to the cells. Plates were then incubated at 37° C., 5% CO2 for 48 hours. On day four, medium was aspirated from the plate and crude cell lysates were made by adding 13 μL of 1× Cell Signalling Technologies lysis buffer with 1 Complete, Mini, EDTA-free Protease Inhibitor Tablet (Roche) for each 10 mL of lysis buffer. After lysis plates were incubated for 20 minutes at room temperature. Two microliters of lysate were removed for use in Cell Titer Glo assay (Promega) and MTT cocktail was prepared (Prochaska et. al. 1998) for measurement of NQO1 activity. Fifty microliters of MTT cocktail was added to each well, plate was centrifuged, and analyzed on an Envision plate reader (Perkin Elmer) using Absorbance 570 nm label for 30 minutes. Product formation was measured kinetically and the pEC50 of NQO1 specific activity induction was calculated by plotting the change in absorbance (Delta OD/min) versus the log of compound concentration followed by 3-parameter fitting.
EC50s<1 nM (+++++), EC50s 1 nM-10 nM (++++), EC50s 10 nM-100 nM (+++), EC50s 100 nM-1 μM (++), EC50s 1 μM-10 μM (+).

For the compound `Cc1ccc([C@@H](c2ccc3c(nnn3C)c2C)C(C)(C)C(=O)O)cc1CN1Cc2nc(O)ccc2O[C@@H](C(F)(F)F)C1` [Example 21, (S)-3-(1,4-dimethyl-1H-benzo[d][1,2,3]triazol-5-yl)-3-(3-(((R)-7-hydroxy-2-(trifluoromethyl)-2,3-dihydropyrido[2,3-f][1,4]oxazepin-4(5H)-yl)methyl)-4-methylphenyl)-2,2-dimethylpropanoic acid], the EC50 lay within 10 to 100 nM. As for `Cc1ccc([C@@H](c2ccc3c(nnn3C)c2C)C(C)(C)C(=O)O)cc1CN1Cc2nc(O)ccc2O[C@@H](C(C)C)C1` [Example 16, (S)-3-(1,4-dimethyl-1H-benzo[d][1,2,3]triazol-5-yl)-3-(3-(((S)-7-hydroxy-2-isopropyl-2,3-dihydropyrido[2,3-f][1,4]oxazepin-4(5H)-yl)methyl)-4-methylphenyl)-2,2-dimethylpropanoic acid], the figure is 1 to 10 nM. The result for `Cc1ccc([C@@H](CC(=O)O)c2ccc3c(nnn3C)c2C)cc1CN1Cc2nc(O)ccc2O[C@H](C)C1` [Example 4, (R)-3-(1,4-dimethyl-1H-benzo[d][1,2,3]triazol-5-yl)-3-(3-(((R)-7-hydroxy-2-methyl-2,3-dihydropyrido[2,3-f][1,4]oxazepin-4(5H)-yl)methyl)-4-methylphenyl)propanoic acid] reads 10 to 100 nM. `Cc1ccc([C@@H](CC(=O)O)c2ccc3c(nnn3C)c2C)cc1CN1Cc2nc(O)ccc2O[C@H](C(C)C)C1` [Example 3, (R)-3-(1,4-dimethyl-1H-benzo[d][1,2,3]triazol-5-yl)-3-(3-(((R)-7-hydroxy-2-isopropyl-2,3-dihydropyrido[2,3-f][1,4]oxazepin-4(5H)-yl)methyl)-4-methylphenyl)propanoic acid]: the half-maximal effective concentration (EC50) lay within 1 to 10 nM. The result for `Cc1ccc([C@@H](CC(=O)O)c2ccc3c(nnn3C)c2C)cc1CN1Cc2nc(O)ccc2OC2(CCC2)C1` [Example 29] reads 10 to 100 nM; that for `Cc1ccc([C@@H](c2ccc3c(nnn3C)c2C)C(C)(C)C(=O)O)cc1CN1Cc2nc(O)ccc2O[C@@H](C)C1` [Example 23, (S)-3-(1,4-dimethyl-1H-benzo[d][1,2,3]triazol-5-yl)-3-(3-(((S)-7-hydroxy-2-methyl-2,3-dihydropyrido[2,3-f][1,4]oxazepin-4(5H)-yl)methyl)-4-methylphenyl)-2,2-dimethylpropanoic acid], 10 to 100 nM; that for `Cc1ccc([C@@H](CC(=O)O)c2ccc3c(nnn3C)c2C)cc1CN1Cc2nc(O)ccc2O[C@H](C(C)(C)C)C1` [Example 30, (R)-3-(3-(((R)-2-(tert-butyl)-7-hydroxy-2,3-dihydropyrido[2,3-f][1,4]oxazepin-4(5H)-yl)methyl)-4-methylphenyl)-3-(1,4-dimethyl-1H-benzo[d][1,2,3]triazol-5-yl)propanoic acid], 10 to 100 nM. As for `CC[C@@]1(C)CN(Cc2cc([C@@H](CC(=O)O)c3ccc4c(nnn4C)c3C)ccc2C)Cc2nc(O)ccc2O1` [Example 27, (R)-3-(1,4-dimethyl-1H-benzo[d][1,2,3]triazol-5-yl)-3-(3-(((S)-2-ethyl-7-hydroxy-2-methyl-2,3-dihydropyrido[2,3-f][1,4]oxazepin-4(5H)-yl)methyl)-4-methylphenyl)propanonic acid], the figure is 10 to 100 nM; as for `Cc1ccc([C@H](CC(=O)O)c2ccc3c(nnn3C)c2C)cc1CN1Cc2nc(O)ccc2OC(C)(C)C1` [Example 11, (S)-3-(1,4-dimethyl-1H-benzo[d][1,2,3]triazol-5-yl)-3-(3-((7-hydroxy-2,2-dimethyl-2,3-dihydropyrido[2,3-f][1,4]oxazepin-4(5H)-yl)methyl)-4-methylphenyl)propanoic acid], 100 to 1000 nM; as for `Cc1ccc([C@@H](CC(=O)O)c2ccc3c(nnn3C)c2C)cc1CN1Cc2nc(O)ccc2OC(C)(C)C1` [Example 5, (R)-3-(1,4-dimethyl-1H-benzo[d][1,2,3]triazol-5-yl)-3-(3-((7-hydroxy-2,2-dimethyl-2,3-dihydropyrido[2,3-f][1,4]oxazepin-4(5H)-yl)methyl)-4-methylphenyl)propanoic acid], 10 to 100 nM.
